Experimental data: patent US12180187B2, “1-phenyl-5-azinylpyrazolyl-3-oxyalkyl acids and their use for controlling unwanted plant growth” (BAYER AKTIENGESELLSCHAFT, priority 2019, dated 2024)

Assays:
[1] = test system: ALOMY; experiment: Post-emergence action against ALOMY, 1.28 kg/ha; type: in vivo, Alopecurus myosuroides; conditions: dosage 1280 g/ha, visual rating about 3 weeks after treatment vs untreated controls
How it was run: (§1)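 Visual rating against untreated plants about 3 weeks after spraying gives % activity, where 0% means like controls and 100% means plants died. Plants were treated post-emergence at the one-leaf stage with compound formulated as wettable powder or emulsion concentrate, applied at 600 L water/ha plus 0.5% additive.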

[2] = test system: AMARE; experiment: Pre-emergence action against AMARE, 1280 g/ha; type: in vivo, Amaranthus retroflexus; conditions: scored visually after about 3 weeks vs untreated controls (100% = plants have died)
How it was run: (§2)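 Mono- and dicot weed seeds sown in sandy loam were treated on the covering soil surface with WP or EC formulations plus 0.5% additive at 600 L water/ha. Pots stayed in a greenhouse; damage was scored visually after ~3 weeks as percent versus untreated controls (100% = dead).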

[3] = test system: MATIN; experiment: Post-emergence action against MATIN, 1.28 kg/ha; type: in vivo, Tripleurospermum inodorum (Matricaria inodora); conditions: dosage 1280 g/ha, visual rating about 3 weeks after treatment vs untreated controls (100% = plants died)
How it was run: as §1

[4] = test system: POAAN; experiment: Pre-emergence action against POAAN, 1280 g/ha; type: in vivo, Poa annua; conditions: visual scoring after about 3 weeks vs untreated controls, 100% = plants have died, 0% = like control plants
How it was run: as §2

[5] = test system: ECHCG; experiment: Pre-emergence action against ECHCG, 1280 g/ha; type: in vivo, Echinochloa crus-galli; conditions: visual scoring after about 3 weeks vs untreated controls, 100% = plants have died, 0% = like control plants
How it was run: as §2

[6] = test system: ABUTH; experiment: Post-emergence action against ABUTH, 1.28 kg/ha; type: in vivo, Abutilon theophrasti; conditions: dosage 1280 g/ha, visual rating about 3 weeks after treatment vs untreated controls (100% = plants died)
How it was run: as §1

[7] = test system: STEME; experiment: Post-emergence action against STEME, 1.28 kg/ha; type: in vivo, Stellaria media; conditions: dosage 1280 g/ha, visual rating about 3 weeks after treatment vs untreated controls (100% = plants died)
How it was run: as §1

[8] = test system: DIGSA; experiment: Post-emergence action against DIGSA, 1.28 kg/ha; type: in vivo, Digitaria sanguinalis; conditions: dosage 1280 g/ha, visual rating about 3 weeks after treatment vs untreated controls
How it was run: as §1

[9] = test system: VERPE; experiment: Pre-emergence action against VERPE, 1280 g/ha; type: in vivo, Veronica persica; conditions: scored visually after about 3 weeks vs untreated controls (100% = plants have died)
How it was run: as §2

[10] = test system: MATIN; experiment: Pre-emergence action against MATIN, 1280 g/ha; type: in vivo, Tripleurospermum inodorum (Matricaria inodora); conditions: scored visually after about 3 weeks vs untreated controls (100% = plants have died)
How it was run: as §2

[11] = test system: ABUTH; experiment: Pre-emergence action against ABUTH, 1280 g/ha; type: in vivo, Abutilon theophrasti; conditions: scored visually after about 3 weeks vs untreated controls (100% = plants have died)
Source text: 1. Pre-Emergence Herbicidal Effect and Crop Plant Compatibility a) Seeds of mono- and dicotyledonous weed plants are placed in plastic pots in sandy loam soil (doubly sown with one species each of mono- or dicotyledonous weed plants per pot) and covered with soil. The compounds of the invention, formulated in the form of wettable powders (WP) or as emulsion concentrates (EC), are then applied onto the surface of the covering soil as aqueous suspension or emulsion with addition of 0.5% additive at a water application rate equivalent to 600 litres per hectare. After the treatment, the pots are placed in a greenhouse and kept under good growth conditions for the trial plants. After about 3 weeks, the effect of the preparations is scored visually in comparison with untreated controls as percentages. For example, 100% activity=the plants have died, 0% activity=like control plants. 1. Pre-Emergence Effectiveness Tables 1 to 12 below show the effects of selected compounds of the general formula (I) according to Tables 1 and 2 on various harmful plants and at an application rate corresponding to 1280 g/ha, which were obtained by the experimental procedure mentioned above.

[12] = test system: ECHCG; experiment: Post-emergence action against ECHCG, 1.28 kg/ha; type: in vivo, Echinochloa crus-galli; conditions: dosage 1280 g/ha, visual rating about 3 weeks after treatment vs untreated controls
How it was run: as §1

[13] = test system: LOLRI; experiment: Pre-emergence action against LOLRI, 1280 g/ha; type: in vivo, Lolium rigidum; conditions: visual scoring after about 3 weeks vs untreated controls, 100% = plants have died, 0% = like control plants
How it was run: as §2

[14] = test system: POAAN; experiment: Post-emergence action against POAAN, 1.28 kg/ha; type: in vivo, Poa annua; conditions: dosage 1280 g/ha, visual rating about 3 weeks after treatment vs untreated controls
How it was run: as §1

[15] = test system: SETVI; experiment: Pre-emergence action against SETVI, 1280 g/ha; type: in vivo, Setaria viridis; conditions: visual scoring after about 3 weeks vs untreated controls, 100% = plants have died, 0% = like control plants
How it was run: as §2

[16] = test system: ALOMY; experiment: Pre-emergence action against ALOMY, 1280 g/ha; type: in vivo, Alopecurus myosuroides; conditions: visual scoring after about 3 weeks vs untreated controls, 100% = plants have died, 0% = like control plants
How it was run: as §2

[17] = test system: STEME; experiment: Pre-emergence action against STEME, 1280 g/ha; type: in vivo, Stellaria media; conditions: scored visually after about 3 weeks vs untreated controls (100% = plants have died)
How it was run: as §2

[18] = test system: DIGSA; experiment: Pre-emergence action against DIGSA, 1280 g/ha; type: in vivo, Digitaria sanguinalis; conditions: visual scoring after about 3 weeks vs untreated controls, 100% = plants have died, 0% = like control plants
How it was run: as §2

[19] = test system: AMARE; experiment: Post-emergence action against AMARE, 1.28 kg/ha; type: in vivo, Amaranthus retroflexus; conditions: dosage 1280 g/ha, visual rating about 3 weeks after treatment vs untreated controls (100% = plants died)
How it was run: as §1

[20] = test system: VERPE; experiment: Post-emergence action against VERPE, 1.28 kg/ha; type: in vivo, Veronica persica; conditions: dosage 1280 g/ha, visual rating about 3 weeks after treatment vs untreated controls (100% = plants died)
How it was run: as §1

[21] = test system: KCHSC; experiment: Pre-emergence action against KCHSC, 1280 g/ha; type: in vivo, Bassia scoparia; conditions: scored visually after about 3 weeks vs untreated controls (100% = plants have died)
How it was run: as §2

[22] = test system: KCHSC; experiment: Post-emergence action against KCHSC, 1.28 kg/ha; type: in vivo, Bassia scoparia; conditions: dosage 1280 g/ha, visual rating about 3 weeks after treatment vs untreated controls (100% = plants died)
How it was run: as §1

[23] = test system: SETVI; experiment: Post-emergence action against SETVI, 1.28 kg/ha; type: in vivo, Setaria viridis; conditions: dosage 1280 g/ha, visual rating about 3 weeks after treatment vs untreated controls
How it was run: as §1

[24] = test system: LOLRI; experiment: Post-emergence action against LOLRI, 1.28 kg/ha; type: in vivo, Lolium rigidum; conditions: dosage 1280 g/ha, visual rating about 3 weeks after treatment vs untreated controls
How it was run: as §1

Compound	Post-emergence action against ALOMY [1] [%]	Pre-emergence action against AMARE [2] [%]	Post-emergence action against MATIN [3] [%]	Pre-emergence action against POAAN [4] [%]	Pre-emergence action against ECHCG [5] [%]	Post-emergence action against ABUTH [6] [%]	Post-emergence action against STEME [7] [%]	Post-emergence action against DIGSA [8] [%]	Pre-emergence action against VERPE [9] [%]	Pre-emergence action against MATIN [10] [%]	Pre-emergence action against ABUTH [11] [%]	Post-emergence action against ECHCG [12] [%]	Pre-emergence action against LOLRI [13] [%]	Post-emergence action against POAAN [14] [%]	Pre-emergence action against SETVI [15] [%]	Pre-emergence action against ALOMY [16] [%]	Pre-emergence action against STEME [17] [%]	Pre-emergence action against DIGSA [18] [%]	Post-emergence action against AMARE [19] [%]	Post-emergence action against VERPE [20] [%]	other results
O=C(COc1nn(-c2ccccc2F)c(-c2ccc(F)nc2)c1Br)NS(=O)(=O)CC(F)(F)F [Example X-003]	100	100	100	100	100	90	90	100	100	100	90	90	100	100	100	90	100	100	90	90	Pre-emergence action against KCHSC [21]: 90%
O=C(O)COc1nn(-c2ccccc2F)c(-c2ccc(F)nc2)c1C(F)(F)F [VII-030]	100	100	–	100	90	90	100	–	90	90	90	100	100	100	100	–	100	90	90	90	Post-emergence action against KCHSC [22]: 90%; Pre-emergence action against KCHSC [21]: 90%
CC(Oc1nn(-c2ccccc2F)c(-c2ccc(F)nc2)c1C(F)(F)F)C(=O)O (centres unmarked) [VII-106]	100	100	90	100	100	–	100	100	100	90	90	90	100	100	100	100	100	100	–	100	Post-emergence action against KCHSC [22]: 100%; Post-emergence action against SETVI [23]: 90%
COC(=O)[C@@H](C)Oc1nn(-c2ccccc2F)c(-c2cnc(F)c(F)c2)c1Br [VII-149]	100	100	100	100	–	–	–	100	100	90	90	–	100	100	90	100	100	100	100	90	Post-emergence action against LOLRI [24]: 100%
COC(=O)COc1nn(-c2c(F)cccc2F)c(-c2ccc(F)nc2)c1C#N [VII-061]	100	100	100	100	100	90	100	100	100	100	90	100	100	100	100	100	100	100	90	100	Post-emergence action against LOLRI [24]: 100%; Post-emergence action against KCHSC [22]: 90%; Post-emergence action against SETVI [23]: 90%
C=CCNC(=O)COc1nn(-c2ccccc2F)c(-c2cncnc2)c1Br [IX-001]	–	100	90	100	90	90	100	100	100	100	100	90	100	–	100	–	100	100	–	100	Post-emergence action against KCHSC [22]: 90%; Pre-emergence action against KCHSC [21]: 100%
COC(=O)COc1nn(-c2c(F)cccc2F)c(-c2ccc(F)nc2)c1Br [VII-109]	100	100	100	100	100	100	100	100	100	100	90	100	100	100	100	100	100	100	100	100	Post-emergence action against LOLRI [24]: 100%; Post-emergence action against KCHSC [22]: 90%; Post-emergence action against SETVI [23]: 100%
O=C(O)COc1nn(-c2ccccc2F)c(-c2ccc(F)nc2)c1Br [VI-003]	–	100	100	100	100	90	–	100	100	100	90	100	90	100	100	90	90	100	90	90	Post-emergence action against KCHSC [22]: 90%; Post-emergence action against SETVI [23]: 100%
